Here are results for 21 molecules from US9775831B2, “Combinations comprising biphenyl derivatives for use in the treatment of HCV” (BRISTOL-MYERS SQUIBB COMPANY, priority 2013, dated 2017).

The subject of one experiment is genotype-1a variant with glutamine 30 changed to glutamate in the NS5A protein. Nature of the experiment: HCV replicon cell-based assay, NS5A synergy with BMS-790052. To be noted: genotype 1a Q→E variant; test compound titrated in combination with NS5A-targeting compound (BMS-790052 fixed at 200 nM). From the text:
The NS5A synergistic inhibitory effect of test compounds can be determined using various amounts of an NS5A-targeting compound with titration of a second compound of interest. […] In one embodiment, the HCV genotype strain can be genotype 1a containing a change at amino acid 30 of the NS5A protein consisting of glutamine to glutamate. The test compound can be chosen from compounds listed above or from others present in the literature.
On the technique in general: Replicon systems follow genome replication, usually without infectious particles.
On to `CC(C)[C@H](CC(=O)NCC1(c2ccc(F)cc2)CCCC1)c1ncc(-c2ccc(-c3ccc(-c4cnc([C@@H](CC(=O)NCC5(c6ccc(F)cc6)CCCC5)C(C)C)[nH]4)cc3)cc2)[nH]1` [MD-32], for which the “Fold Synergistic (1a-QE)” value is >100 Fold.

For the molecule `CC(C)[C@H](CC(=O)NC1(C#N)CC1)c1ncc(-c2ccc(-c3ccc(-c4cnc([C@@H](CC(=O)NC5(C(N)=O)CC5)C(C)C)[nH]4)cc3)cc2)[nH]1` [MD-33], the “Fold Synergistic (1a-QE)” value is <10 Fold.

Take `CCO[C@H](CC(=O)NCC(C)C)C(=O)N[C@H](c1ncc(-c2ccc(-c3ccc(-c4cnc([C@@H](NC(=O)[C@@H](CC(=O)NCC(C)C)OCC)C(C)(C)C)[nH]4)cc3)cc2)[nH]1)C(C)(C)C` [MD-34]: the “Fold Synergistic (1a-QE)” value is reported as >100 Fold.

For `CC(C)CNC(=O)C[C@H](c1ncc(-c2ccc(-c3ccc(-c4cnc([C@@H](CC(=O)NCC(C)C)C(C)C)[nH]4)cc3)cc2)[nH]1)C(C)C` [MD-35], the “Fold Synergistic (1a-QE)” value was >10 Fold.

For the molecule `C[C@H](CC(=O)N1CCOCC1)c1ncc(-c2ccc(-c3ccc(-c4cnc([C@H](C)CC(=O)N5CCOCC5)[nH]4)cc3)cc2)[nH]1` [MD-37], the “Fold Synergistic (1a-QE)” value was >10 Fold.

Regarding `C[C@H](CC(=O)NC1CCOCC1)c1ncc(-c2ccc(-c3ccc(-c4cnc([C@H](C)CC(=O)NC5CCOCC5)[nH]4)cc3)cc2)[nH]1` [MD-39], the “Fold Synergistic (1a-QE)” value was >10 Fold.

`CC(C)[C@H](CC(=O)NCC(C)(C)CO)c1ncc(-c2ccc(-c3ccc(-c4cnc([C@@H](CC(=O)NCC(C)(C)CO)C(C)C)[nH]4)cc3)cc2)[nH]1` [MD-42]: the “Fold Synergistic (1a-QE)” value is recorded as >10 Fold.

Take `CCCN(CC1CC1)C(=O)C[C@H](c1ncc(-c2ccc(-c3ccc(-c4cnc([C@@H](CC(=O)N(CCC)CC5CC5)C(C)C)[nH]4)cc3)cc2)[nH]1)C(C)C` [MD-44]: the “Fold Synergistic (1a-QE)” value is >10 Fold.

In the case of `CCC(CC)CNC(=O)C[C@H](c1ncc(-c2ccc(-c3ccc(-c4cnc([C@@H](CC(=O)NCC(CC)CC)C(C)C)[nH]4)cc3)cc2)[nH]1)C(C)C` [MD-45], the “Fold Synergistic (1a-QE)” value was >100 Fold.

Turning to `CC(C)[C@H](CC(=O)NCC(C)(C)c1ccccc1)c1ncc(-c2ccc(-c3ccc(-c4cnc([C@@H](CC(=O)NCC(C)(C)c5ccccc5)C(C)C)[nH]4)cc3)cc2)[nH]1` [MD-47], the “Fold Synergistic (1a-QE)” value is >100 Fold.

On to `CC(C)NC(=O)CN(C)C(=O)C[C@H](c1ncc(-c2ccc(-c3ccc(-c4cnc([C@@H](CC(=O)N(C)CC(=O)NC(C)C)C(C)C)[nH]4)cc3)cc2)[nH]1)C(C)C` [MD-48], for which the “Fold Synergistic (1a-QE)” value is on record as <10 Fold.

As for `CC(C)[C@H](CC(=O)N(C)CC(C)(C)C)c1ncc(-c2ccc(-c3ccc(-c4cnc([C@@H](CC(=O)N(C)CC(C)(C)C)C(C)C)[nH]4)cc3)cc2)[nH]1` [MD-49], the “Fold Synergistic (1a-QE)” value is given as >10 Fold.

Take `CC(C)[C@H](CC(=O)N(C)C1CCOCC1)c1ncc(-c2ccc(-c3ccc(-c4cnc([C@@H](CC(=O)N(C)C5CCOCC5)C(C)C)[nH]4)cc3)cc2)[nH]1` [MD-50]: the “Fold Synergistic (1a-QE)” value is reported as <10 Fold.

`CC(C)[C@H](CC(=O)NCC(C)(C)C(N)=O)c1ncc(-c2ccc(-c3ccc(-c4cnc([C@@H](CC(=O)NCC(C)(C)C(N)=O)C(C)C)[nH]4)cc3)cc2)[nH]1` [MD-51]: the “Fold Synergistic (1a-QE)” value is on record as >10 Fold.

Take `CC(C)[C@H](CC(=O)N(Cc1ccccc1)C(C)C)c1ncc(-c2ccc(-c3ccc(-c4cnc([C@@H](CC(=O)N(Cc5ccccc5)C(C)C)C(C)C)[nH]4)cc3)cc2)[nH]1` [MD-52]: the “Fold Synergistic (1a-QE)” value is on record as >100 Fold.

On to `CC(C)[C@H](CC(=O)N1CCN(C)C(=O)C1)c1ncc(-c2ccc(-c3ccc(-c4cnc([C@@H](CC(=O)N5CCN(C)C(=O)C5)C(C)C)[nH]4)cc3)cc2)[nH]1` [MD-53], for which the “Fold Synergistic (1a-QE)” value is on record as <10 Fold.

With `CC(C)[C@H](CC(=O)NCC1(O)CCC1)c1ncc(-c2ccc(-c3ccc(-c4cnc([C@@H](CC(=O)NCC5(O)CCC5)C(C)C)[nH]4)cc3)cc2)[nH]1` [MD-54], the “Fold Synergistic (1a-QE)” value is reported as >10 Fold.

Regarding `CCOC(=O)N1CCN(C(=O)C[C@@H](CCC(F)(F)F)c2ncc(-c3ccc(-c4ccc(-c5cnc([C@H](CCC(F)(F)F)CC(=O)N6CCN(C(=O)OCC)CC6)[nH]5)cc4)cc3)[nH]2)CC1` [MD-58], the “Fold Synergistic (1a-QE)” value is >10 Fold.

Consider `O=C(C[C@@H](CCC(F)(F)F)c1ncc(-c2ccc(-c3ccc(-c4cnc([C@H](CCC(F)(F)F)CC(=O)NC5CCOCC5)[nH]4)cc3)cc2)[nH]1)NC1CCOCC1` [MD-61], for which the “Fold Synergistic (1a-QE)” value was <10 Fold.

For a further experiment the test system is unchanged.
Experiment: not given
To be noted: BMS-790052 titrated with P-55 fixed at 200 nM; genotype-1a Q30E variant; cited from earlier work.
As to `COC(=O)N[C@H](C(=O)N1CCC[C@H]1c1nc(-c2ccc(-c3ccc(-c4c[nH]c([C@@H]5CCCN5C(=O)[C@@H](NC(=O)OC)C(C)C)n4)cc3)cc2)c[nH]1)C(C)C` [BMS-790052], the “reciprocal synergistic inhibitory effect for the combination” value is recorded as ~100 fold.

Staying with this experiment, now noted: P-55 titrated with BMS-790052 fixed at 200 nM; genotype-1a Q30E variant; cited from earlier work.
In the case of `CC(C)CC(=O)N[C@H](c1ncc(-c2ccc(-c3ccc(-c4cnc([C@@H](NC(=O)CC(C)C)C(C)C)[nH]4)cc3)cc2)[nH]1)C(C)C` [Example P-55], the “synergistic inhibitory effect for the combination” value is > 100 fold.

Staying with this experiment, now noted: genotype-1a Q30E NS5A variant replicon; compound alone; read-out: EC50, titrated singly; cited from earlier work.
Usually EC50 stands for the concentration needed to bring the measured effect to its halfway point. Turning to `COC(=O)N[C@H](C(=O)N1CCC[C@H]1c1nc(-c2ccc(-c3ccc(-c4c[nH]c([C@@H]5CCCN5C(=O)[C@@H](NC(=O)OC)C(C)C)n4)cc3)cc2)c[nH]1)C(C)C` [BMS-790052], the EC50 is ~200 nM.

In the case of `CC(C)CC(=O)N[C@H](c1ncc(-c2ccc(-c3ccc(-c4cnc([C@@H](NC(=O)CC(C)C)C(C)C)[nH]4)cc3)cc2)[nH]1)C(C)C` [Example P-55], the EC50 was > 200 nM.

Staying with this experiment, now noted: genotype-1a Q30E variant; BMS-790052 fixed at 200 nM; read-out: EC50 of P-55 in the presence of a fixed amount of BMS-790052; cited from earlier work.
For the molecule `CC(C)CC(=O)N[C@H](c1ncc(-c2ccc(-c3ccc(-c4cnc([C@@H](NC(=O)CC(C)C)C(C)C)[nH]4)cc3)cc2)[nH]1)C(C)C` [Example P-55], the EC50 was ~2 nM.

Still in this experiment, the particulars now being: genotype-1a Q30E variant; P-55 fixed at 200 nM; read-out: EC50 of BMS-790052 in the presence of a fixed amount of P-55; cited from earlier work.
On to `COC(=O)N[C@H](C(=O)N1CCC[C@H]1c1nc(-c2ccc(-c3ccc(-c4c[nH]c([C@@H]5CCCN5C(=O)[C@@H](NC(=O)OC)C(C)C)n4)cc3)cc2)c[nH]1)C(C)C` [BMS-790052], for which the EC50 is ~2 nM.
